Experimental data: the supplement of paper PMC11061612

What was measured:
Assay in all cases: combination Emax (second highest fraction inhibited in the dose matrix, 72 h); higher = more inhibition; extreme values may be limits of the assay
[1] = system: AMO-1 (Plasma Cell Myeloma)
Method in brief: (§1)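 Cell lines in DMEM/F12 or RPMI with 10% FBS were plated in 1536-well plates, held 24 hours at 37°C, 5% CO2, then given two-drug dose matrices for 72 hours (DMSO typically 0.2%). Viability was read by CellTiter-Glo 2.0 luminescence and scaled as inhibition from 0 (vehicle wells) to 1 (blank wells). Combination Emax is the second-highest inhibition in the matrix; Bliss excess is observed combination effect minus expected EA + EB − EA·EB, EA and EB being single-agent effects.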

[2] = system: C-4-I (Cervical Carcinoma)
Method in brief: as §1

[3] = system: EW-24 (Ewing's Sarcoma)
Method in brief: as §1

[4] = system: EoL-1-cell (Acute Myeloid Leukemia)
Method in brief: as §1

[5] = system: HSC-4 (Oral Cavity Carcinoma)
Method in brief: as §1

[6] = system: Hs-766T (Pancreatic Carcinoma)
Method in brief: as §1

[7] = system: KARPAS-299 (T-Cell Non-Hodgkin's Lymphoma)
Method in brief: as §1

[8] = system: KMOE-2 (Acute Myeloid Leukemia)
Method in brief: as §1

[9] = system: KYSE-450 (Esophageal Squamous Cell Carcinoma)
Method in brief: as §1

[10] = system: LU-65 (Non-Small Cell Lung Carcinoma)
Method in brief: as §1

[11] = system: NCI-H1915 (Non-Small Cell Lung Carcinoma)
Method in brief: as §1

[12] = system: NCI-H358 (Lung Adenocarcinoma)
Method in brief: as §1

[13] = system: NEC8 (Other Solid Carcinomas)
Method in brief: as §1

[14] = system: NUGC-3 (Gastric Carcinoma)
Method in brief: as §1

[15] = system: PWR-1E (Non-Cancerous)
Method in brief: as §1

[16] = system: SCC-15 (Oral Cavity Carcinoma)
Method in brief: as §1

[17] = system: SW13 (Other Solid Carcinomas)
Method in brief: as §1

[18] = system: TE-1 (Esophageal Squamous Cell Carcinoma)
Method in brief: as §1

[19] = system: UACC-62 (Melanoma)
Method in brief: as §1

[20] = system: VA-ES-BJ (Other Solid Carcinomas)
Method in brief: as §1

| SMILES | combination Emax [1] | combination Emax [2] | combination Emax [3] | combination Emax [4] | combination Emax [5] | combination Emax [6] | combination Emax [7] | combination Emax [8] | combination Emax [9] | combination Emax [10] | combination Emax [11] | combination Emax [12] | combination Emax [13] | combination Emax [14] | combination Emax [15] | combination Emax [16] | combination Emax [17] | combination Emax [18] | combination Emax [19] | combination Emax [20] |
| --- | --- | --- | --- | --- | --- | --- | --- | --- | --- | --- | --- | --- | --- | --- | --- | --- | --- | --- | --- | --- |
| COc1cccc2c1C(=O)c1c(O)c3c(c(O)c1C2=O)C[C@@](O)(C(=O)CO)C[C@@H]3O[C@H]1C[C@H](N)[C@H](O)[C@H](C)O1 [Doxorubicin] + Cc1cc2ncnn2cc1Nc1ncc2c(n1)n(C1CCOCC1)c(=O)n2C [AZD7648] (first compound max 1 µM, 7x7, partner max 10 µM) | 0.973 | 0.971 | 0.719 | 1 | 0.437 | 0.43 | 0.941 | 0.911 | 0.801 | 0.889 | 0.486 | 0.821 | 0.973 | 0.907 | 0.89 | 0.329 | 0.874 | 0.736 | 0.935 | 0.758 |
| COc1cccc(OCCCN)c1-c1cc(Nc2cnc(C#N)cn2)n[nH]1 [Prexasertib] + O=C(c1cc(Cc2n[nH]c(=O)c3ccccc23)ccc1F)N1CCN(C(=O)C2CC2)CC1 [Olaparib] (first compound max 1 µM, 7x7, partner max 10 µM) | 0.982 | 0.929 | 0.696 | 1 | 0.674 | 0.658 | 1 | 0.974 | 0.744 | 0.788 | 0.665 | 0.85 | 0.968 | 0.726 | 0.71 | 0.482 | 0.39 | 0.621 | 0.743 | 0.837 |
| CC1(C)CCC(CN2CCN(c3ccc(C(=O)NS(=O)(=O)c4ccc(NCC5CCOCC5)c([N+](=O)[O-])c4)c(Oc4cnc5[nH]ccc5c4)c3)CC2)=C(c2ccc(Cl)cc2)C1 [Venetoclax] + Cc1cc2ncnn2cc1Nc1ncc2c(n1)n(C1CCOCC1)c(=O)n2C [AZD7648] (first compound max 1 µM, 7x7, partner max 10 µM) | 0.73 | 0.222 | 0.38 | 0.996 | 0.11 | 0.372 | 0.837 | 0.427 | 0.14 | 0.378 | 0.641 | 0.293 | 0.205 | 0.409 | 0.164 | 0.212 | 0.302 | 0.0373 | 0.221 | 0.233 |
| C=CCn1c(=O)c2cnc(Nc3ccc(N4CCN(C)CC4)cc3)nc2n1-c1cccc(C(C)(C)O)n1 [AZD1775] + O=C(c1cc(Cc2n[nH]c(=O)c3ccccc23)ccc1F)N1CCN(C(=O)C2CC2)CC1 [Olaparib] (first compound max 1 µM, partner max 10 µM) | 0.728 | 0.792 | 0.433 | 0.999 | 0.461 | 0.473 | 0.93 | 0.905 | 0.687 | 0.609 | 0.668 | 0.447 | 0.284 | 0.547 | 0.562 | 0.284 | 0.259 | 0.552 | 0.468 | 0.307 |
| Cc1c2c(nn1C)CSCc1cc(n(C)n1)CSc1cc(c3ccccc3c1)OCCCc1c(C(=O)O)n(C)c3c-2c(Cl)ccc13 [AZD5991] + CN(C)CCCOc1ccc(-c2ccc3ncc4c(c3c2)n(C2CCOCC2)c(=O)n4C)cn1 [AZD0156] (first compound max 1 µM, 7x7, partner max 1 µM) | 1 | 1 | 0.291 | 0.999 | 0.197 | 0.372 | 0.978 | 0.797 | 0.251 | 0.366 | 0.439 | 0.308 | 0.291 | 0.369 | 0.29 | 0.269 | 0.828 | 0.635 | 0.812 | 0.243 |
| CN(CCO)CC[C@H](CSc1ccccc1)Nc1ccc(S(=O)(=O)NC(=O)c2ccc(N3CCC([C@@H](O)c4ccccc4-c4ccc(Cl)cc4)CC3)cc2)cc1S(=O)(=O)C(F)(F)F [AZD4320] + CN(C)CCCOc1ccc(-c2ccc3ncc4c(c3c2)n(C2CCOCC2)c(=O)n4C)cn1 [AZD0156] (first compound max 1 µM, 7x7, partner max 1 µM) | 0.0251 | 0.145 | 0.876 | 1 | 0.245 | 0.21 | 0.13 | 0.847 | 0.0751 | 0.307 | 0.271 | 0.217 | 0.203 | 0.151 | 0.162 | 0.202 | 0.14 | 0.37 | 0.182 | 0.164 |
| COc1cccc(OCCCN)c1-c1cc(Nc2cnc(C#N)cn2)n[nH]1 [Prexasertib] + C[C@@H]1COCCN1C2=NC(=NC(=C2)C3(CC3)[S@](=N)(=O)C)C4=C5C=CNC5=NC=C4 [AZD6738] (first compound max 1 µM, 7x7, partner max 10 µM) | 0.965 | 0.965 | 0.645 | 0.996 | 0.666 | 0.658 | 0.985 | 0.948 | 0.651 | 0.795 | 0.612 | 0.825 | 0.983 | 0.762 | 0.973 | 0.663 | 0.519 | 0.641 | 0.697 | 0.782 |
| C[C@@H]1COCCN1c1cc(C2([S@](C)(=N)=O)CC2)nc(-c2ccnc3[nH]ccc23)n1 [AZD6738] + O=C(c1cc(Cc2n[nH]c(=O)c3ccccc23)ccc1F)N1CCN(C(=O)C2CC2)CC1 [Olaparib] (first compound max 10 µM, 7x7, partner max 10 µM) | 0.866 | 0.875 | 0.567 | 0.992 | 0.691 | 0.554 | 0.98 | 0.616 | 0.608 | 0.751 | 0.557 | 0.544 | 0.764 | 0.778 | 0.842 | 0.587 | 0.451 | 0.319 | 0.509 | 0.64 |
| CCN(CCO)CCCOc1ccc2c(Nc3cc(CC(=O)Nc4cccc(F)c4)[nH]n3)ncnc2c1 [AZD2811] + C=CCn1c(=O)c2cnc(Nc3ccc(N4CCN(C)CC4)cc3)nc2n1-c1cccc(C(C)(C)O)n1 [AZD1775] (first compound max 1 µM, partner max 1 µM) | 0.718 | 0.771 | 0.279 | 1 | 0.367 | 0.346 | 0.911 | 0.89 | 0.61 | 0.56 | 0.522 | 0.416 | 0.329 | 0.539 | 0.87 | 0.296 | 0.463 | 0.601 | 0.391 | 0.356 |
| COc1nnc2ccc(N3CCC(c4ccc(OCCN5CCN(C)C(=O)[C@H]5C)cc4)CC3)nn12 [AZD5153] + CCN(CCO)CCCOc1ccc2c(Nc3cc(CC(=O)Nc4cccc(F)c4)[nH]n3)ncnc2c1 [AZD2811] (first compound max 1 µM, 7x7, partner max 1 µM) | 0.912 | 0.565 | 0.616 | 1 | 0.292 | 0.416 | 0.847 | 0.901 | 0.358 | 0.494 | 0.486 | 0.352 | 0.826 | 0.579 | 0.782 | 0.41 | 0.455 | 0.49 | 0.478 | 0.579 |
| CC(=O)Nc1cccc(-n2c(=O)n(C3CC3)c(=O)c3c(Nc4ccc(I)cc4F)n(C)c(=O)c(C)c32)c1 [Trametinib] + Cc1nc(-c2cn3c(n2)-c2ccc(-c4cnn(C(C)(C)C(N)=O)c4)cc2OCC3)n(C(C)C)n1 [Taselisib] (first compound max 1 µM, 7x7, partner max 10 µM) | 0.812 | 0.94 | 0.6 | 1 | 0.686 | 0.773 | 0.639 | 1 | 0.753 | 0.985 | 1 | 0.961 | 0.674 | 0.865 | 0.864 | 1 | 0.929 | 0.75 | 0.996 | 0.687 |
| COc1cccc(OCCCN)c1-c1cc(Nc2cnc(C#N)cn2)n[nH]1 [Prexasertib] + Cc1cc2ncnn2cc1Nc1ncc2c(n1)n(C1CCOCC1)c(=O)n2C [AZD7648] (first compound max 1 µM, 7x7, partner max 10 µM) | 0.986 | 0.956 | 0.649 | 0.998 | 0.588 | 0.709 | 0.962 | 0.945 | 0.584 | 0.822 | 0.602 | 0.769 | 0.995 | 0.747 | 0.983 | 0.549 | 0.492 | 0.694 | 0.823 | 0.763 |
| CN(C)CCCOc1ccc(-c2ccc3ncc4c(c3c2)n(C2CCOCC2)c(=O)n4C)cn1 [AZD0156] + O=C(c1cc(Cc2n[nH]c(=O)c3ccccc23)ccc1F)N1CCN(C(=O)C2CC2)CC1 [Olaparib] (first compound max 3 µM, partner max 3 µM) | 0.481 | 0.362 | 0.473 | 0.732 | 0.234 | 0.207 | 0.467 | 0.239 | 0.159 | 0.268 | 0.231 | 0.247 | 0.277 | 0.346 | 0.684 | 0.277 | 0.421 | 0.0888 | 0.183 | 0.284 |
